{"source": "patent US10167262B2", "about": "“Herbicidal substituted 3-arylpyrazoles” (FMC CORPORATION, priority 2014, dated 2019)", "type_in_all_cases": "in vivo", "key": {"[1]": {"test_system": "soybean (Glycine max)", "assay": "Test E pre-/postemergence greenhouse test, plant response rating 0-100", "details": "Glycine max, post-emergence, Postemergence, scale 0 to 100; for plant injury at 125 g/ha: 125 g ai/ha; for plant injury at 500 g/ha: 500 g ai/ha", "procedure,_shortened": "(§1)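 Pre- and postemergence sprays, vehicle non-phytotoxic solvent containing surfactant; postemergence plants 2–18 cm tall at the 1–4-leaf stage. Scored against controls after 14 to 21 days in a greenhouse, 0 being no effect and 100 complete control.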"}, "[2]": {"test_system": "sandbur (southern sandbur, Cenchrus echinatus)", "assay": "Test E pre-/postemergence greenhouse test, plant response rating 0-100", "details": "Cenchrus echinatus, post-emergence, Postemergence, scale 0 to 100; for pest or weed control at 125 g/ha: 125 g ai/ha; for pest or weed control at 500 g/ha: 500 g ai/ha", "procedure,_shortened": "as §1"}, "[3]": {"test_system": "barnyardgrass (Echinochloa crus-galli)", "assay": "Test E pre-/postemergence greenhouse test, plant response rating 0-100", "details": "Echinochloa crus-galli, post-emergence, Postemergence, scale 0 to 100; for pest or weed control at 125 g/ha: 125 g ai/ha; for pest or weed control at 500 g/ha: 500 g ai/ha", "procedure,_shortened": "as §1"}, "[4]": {"test_system": "oilseed rape (Brassica napus)", "assay": "Test C pre-/postemergence greenhouse test, plant response rating 0-100", "procedure,_shortened": "(§2)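 Pre-emergence soil and post-emergence foliar sprays were applied simultaneously to seeded loam–sand pots and to 1–4-leaf plants in peat medium; greenhouse holding lasted 13–15 days, then plants were scored visually from 0 (no effect) to 100 (complete control).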"}, "[5]": {"test_system": "waterhemp (common waterhemp, Amaranthus rudis)", "assay": "Test C pre-/postemergence greenhouse test, plant response rating 0-100", "procedure,_shortened": "as §2"}, "[6]": {"test_system": "barnyardgrass (Echinochloa crus-galli)", "assay": "Test C pre-/postemergence greenhouse test, plant response rating 0-100", "procedure,_shortened": "as §2"}, "[7]": {"details": "Postemergence, 250 g ai/ha, scale 0 to 100"}, "[8]": {"details": "Postemergence, 500 g ai/ha, scale 0 to 100"}, "[9]": {"details": "Postemergence, 125 g ai/ha, scale 0 to 100"}}}
{"smiles": "COC(OC)(c1ccccc1)c1c[nH]nc1-c1cc(Cl)cc(Cl)c1", "note": "[Compound 13, 3-(3,5-dichlorophenyl)-4-(dimethoxyphenylmethyl)-1H-pyrazole]", "values": [{"measurement": "plant injury at 125 g/ha", "setting": "[1]", "result": 0, "unit": "%"}, {"measurement": "plant injury at 500 g/ha", "setting": "[1]", "result": 0, "unit": "%"}, {"measurement": "pest or weed control at 125 g/ha", "setting": "[2]", "result": 0, "unit": "%"}, {"measurement": "pest or weed control at 500 g/ha", "setting": "[2]", "result": 0, "unit": "%"}, {"measurement": "pest or weed control at 125 g/ha", "setting": "[3]", "result": 15, "unit": "%"}, {"measurement": "pest or weed control at 500 g/ha", "setting": "[3]", "result": 40, "unit": "%"}, {"measurement": "Plant response rating (0 to 100), Oilseed Rape", "setting": "[4]; Postemergence, 62 g ai/ha", "result": 40}, {"measurement": "Plant response rating (0 to 100), Oilseed Rape", "setting": "[4]; Postemergence, 125 g ai/ha", "result": 55}, {"measurement": "Plant response rating, Oilseed Rape", "setting": "[4]; [7]", "result": 50}, {"measurement": "Plant response rating, Oilseed Rape", "setting": "[4]; [8]", "result": 70}, {"measurement": "Plant response rating, Oilseed Rape", "setting": "[4]; Preemergence, 62 g ai/ha", "result": 50}, {"measurement": "Plant response rating, Oilseed Rape", "setting": "[4]; Preemergence, 125 g ai/ha", "result": 20}, {"measurement": "Plant response rating, Oilseed Rape", "setting": "[4]; Preemergence, 250 g ai/ha", "result": 30}, {"measurement": "Plant response rating, Oilseed Rape", "setting": "[4]; Preemergence, 500 g ai/ha", "result": 98}, {"measurement": "Plant response rating (0 to 100), Waterhemp", "setting": "[5]; Postemergence, 62 g ai/ha", "result": 100}, {"measurement": "Plant response rating (0 to 100), Waterhemp", "setting": "[5]; Postemergence, 125 g ai/ha", "result": 100}, {"measurement": "Plant response rating, Waterhemp", "setting": "[5]; [7]", "result": 100}, {"measurement": "Plant response rating, Waterhemp", "setting": "[5]; [8]", "result": 100}, {"measurement": "Plant response rating, Waterhemp", "setting": "[5]; Preemergence, 62 g ai/ha", "result": 100}, {"measurement": "Plant response rating, Waterhemp", "setting": "[5]; Preemergence, 125 g ai/ha", "result": 100}, {"measurement": "Plant response rating, Waterhemp", "setting": "[5]; Preemergence, 250 g ai/ha", "result": 100}, {"measurement": "Plant response rating, Waterhemp", "setting": "[5]; Preemergence, 500 g ai/ha", "result": 100}, {"measurement": "Plant response rating (0 to 100), Barnyardgrass", "setting": "[6]; Postemergence, 62 g ai/ha", "result": 0}, {"measurement": "Plant response rating, Barnyardgrass", "setting": "[6]; [9]", "result": 0}, {"measurement": "Plant response rating, Barnyardgrass", "setting": "[6]; [7]", "result": 0}, {"measurement": "Plant response rating, Barnyardgrass", "setting": "[6]; [8]", "result": 0}, {"measurement": "Plant response rating, Barnyardgrass", "setting": "[6]; Preemergence, 62 g ai/ha", "result": 0}, {"measurement": "Plant response rating, Barnyardgrass", "setting": "[6]; Preemergence, 125 g ai/ha", "result": 0}, {"measurement": "Plant response rating, Barnyardgrass", "setting": "[6]; Preemergence, 250 g ai/ha", "result": 0}, {"measurement": "Plant response rating, Barnyardgrass", "setting": "[6]; Preemergence, 500 g ai/ha", "result": 0}]}
{"smiles": "CCOC(OCC)(c1ccccc1)c1c[nH]nc1-c1cc(Cl)cc(Cl)c1", "note": "[Compound 14, 3-(3,5-dichlorophenyl)-4-(diethoxyphenylmethyl)-1H-pyrazole]", "values": [{"measurement": "plant injury at 31 g/ha", "setting": "[1]; 31 g ai/ha", "result": 0, "unit": "%"}, {"measurement": "plant injury at 62 g/ha", "setting": "[1]; 62 g ai/ha", "result": 0, "unit": "%"}, {"measurement": "plant injury at 125 g/ha", "setting": "[1]", "result": 0, "unit": "%"}, {"measurement": "plant injury at 250 g/ha", "setting": "[1]; 250 g ai/ha", "result": 0, "unit": "%"}, {"measurement": "plant injury at 500 g/ha", "setting": "[1]", "result": 0, "unit": "%"}, {"measurement": "pest or weed control at 31 g/ha", "setting": "[2]; 31 g ai/ha", "result": 0, "unit": "%"}, {"measurement": "pest or weed control at 62 g/ha", "setting": "[2]; 62 g ai/ha", "result": 0, "unit": "%"}, {"measurement": "pest or weed control at 125 g/ha", "setting": "[2]", "result": 0, "unit": "%"}, {"measurement": "pest or weed control at 250 g/ha", "setting": "[2]; 250 g ai/ha", "result": 0, "unit": "%"}, {"measurement": "pest or weed control at 500 g/ha", "setting": "[2]", "result": 0, "unit": "%"}, {"measurement": "pest or weed control at 31 g/ha", "setting": "[3]; 31 g ai/ha", "result": 0, "unit": "%"}, {"measurement": "pest or weed control at 62 g/ha", "setting": "[3]; 62 g ai/ha", "result": 0, "unit": "%"}, {"measurement": "pest or weed control at 125 g/ha", "setting": "[3]", "result": 0, "unit": "%"}, {"measurement": "pest or weed control at 250 g/ha", "setting": "[3]; 250 g ai/ha", "result": 0, "unit": "%"}, {"measurement": "pest or weed control at 500 g/ha", "setting": "[3]", "result": 10, "unit": "%"}, {"measurement": "Plant response rating (0 to 100), Oilseed Rape", "setting": "[4]; Postemergence, 62 g ai/ha", "result": 80}, {"measurement": "Plant response rating (0 to 100), Oilseed Rape", "setting": "[4]; Postemergence, 125 g ai/ha", "result": 70}, {"measurement": "Plant response rating, Oilseed Rape", "setting": "[4]; [7]", "result": 95}, {"measurement": "Plant response rating, Oilseed Rape", "setting": "[4]; [8]", "result": 90}, {"measurement": "Plant response rating, Oilseed Rape", "setting": "[4]; Preemergence, 62 g ai/ha", "result": 50}, {"measurement": "Plant response rating, Oilseed Rape", "setting": "[4]; Preemergence, 125 g ai/ha", "result": 90}, {"measurement": "Plant response rating, Oilseed Rape", "setting": "[4]; Preemergence, 250 g ai/ha", "result": 85}, {"measurement": "Plant response rating, Oilseed Rape", "setting": "[4]; Preemergence, 500 g ai/ha", "result": 85}, {"measurement": "Plant response rating (0 to 100), Waterhemp", "setting": "[5]; Postemergence, 62 g ai/ha", "result": 100}, {"measurement": "Plant response rating (0 to 100), Waterhemp", "setting": "[5]; Postemergence, 125 g ai/ha", "result": 95}, {"measurement": "Plant response rating, Waterhemp", "setting": "[5]; [7]", "result": 100}, {"measurement": "Plant response rating, Waterhemp", "setting": "[5]; [8]", "result": 100}, {"measurement": "Plant response rating, Waterhemp", "setting": "[5]; Preemergence, 62 g ai/ha", "result": 100}, {"measurement": "Plant response rating, Waterhemp", "setting": "[5]; Preemergence, 125 g ai/ha", "result": 100}, {"measurement": "Plant response rating, Waterhemp", "setting": "[5]; Preemergence, 250 g ai/ha", "result": 100}, {"measurement": "Plant response rating, Waterhemp", "setting": "[5]; Preemergence, 500 g ai/ha", "result": 100}, {"measurement": "Plant response rating (0 to 100), Barnyardgrass", "setting": "[6]; Postemergence, 62 g ai/ha", "result": 0}, {"measurement": "Plant response rating, Barnyardgrass", "setting": "[6]; [9]", "result": 0}, {"measurement": "Plant response rating, Barnyardgrass", "setting": "[6]; [7]", "result": 0}, {"measurement": "Plant response rating, Barnyardgrass", "setting": "[6]; [8]", "result": 0}, {"measurement": "Plant response rating, Barnyardgrass", "setting": "[6]; Preemergence, 62 g ai/ha", "result": 0}, {"measurement": "Plant response rating, Barnyardgrass", "setting": "[6]; Preemergence, 125 g ai/ha", "result": 0}, {"measurement": "Plant response rating, Barnyardgrass", "setting": "[6]; Preemergence, 250 g ai/ha", "result": 0}, {"measurement": "Plant response rating, Barnyardgrass", "setting": "[6]; Preemergence, 500 g ai/ha", "result": 0}]}
